# Measurements published in patent US20150105252A1, “SUBSTITUTED PYRAZOLES AS HERBICIDES” (E I DU PONT DE NEMOURS AND COMPANY, priority 2013, published 2015).
# How the values were obtained:
# wheat [1] = assay: Test C postemergence; assay type: in vivo, Triticum aestivum; settings: for Wheat plant response rating / Plant response rating, Wheat: postemergence; for Wheat plant response rating: scale 0 to 100
# How it was run: (§1)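 Greenhouse pot test: preemergence application onto freshly seeded loam/sand mix, postemergence application onto seedlings (1–4 leaves, 2–18 cm) in peat-vermiculite substrate. Responses scored visually 13 to 15 days later relative to controls, where 0 means no effect and 100 means complete control; a dash indicates no result.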
# velvetleaf [2] = assay: Test C postemergence; assay type: in vivo, Abutilon theophrasti; settings: for Velvetleaf plant response rating / Plant response rating, Velvetleaf: postemergence; for Velvetleaf plant response rating: scale 0 to 100
# How it was run: as §1
# corn [3] = assay: Test A postemergence; assay type: in vivo, Zea mays
# How it was run: (§2)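 Seeds were sown in a loam soil–sand blend and given a directed soil spray preemergence; postemergence plants at 2–10 cm, one- to two-leaf stage, were sprayed with compound in non-phytotoxic solvent with surfactant. After about 10 days in a greenhouse, injury was visually rated against untreated controls (0 = no effect, 100 = complete control).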
# pigweed = assay: Test C preemergence; assay type: in vivo, Amaranthus retroflexus
# How it was run: as §1
# waterhemp = assay: Test C postemergence; assay type: in vivo, Amaranthus rudis; settings: for Waterhemp plant response rating / Plant response rating, Waterhemp: postemergence; for Waterhemp plant response rating: scale 0 to 100
# How it was run: as §1
# soybean [4] = assay: Test C postemergence; assay type: in vivo, Glycine max; settings: for Soybean plant response rating / Plant response rating, Soybean: postemergence
# How it was run: as §1
# corn [5] = assay: Test C postemergence; assay type: in vivo, Zea mays; settings: for Plant response rating (scale of 0 to 100 where 0 is no effect and 100 is complete control), Corn: Postemergence, 31 g ai/ha, visually evaluated after 13 to 15 days; for Corn plant response rating / Plant response rating, Corn: postemergence; for Corn plant response rating: 62 g ai/ha, scale 0 to 100
# How it was run: as §1
# morningglory = assay: Test A postemergence; assay type: in vivo, Ipomoea spp.
# How it was run: as §2
# foxtail, giant = assay: Test A postemergence; assay type: in vivo, Setaria faberii
# How it was run: as §2
# lambsquarters = assay: Test C postemergence; assay type: in vivo, Chenopodium album; settings: for Plant response rating (scale of 0 to 100 where 0 is no effect and 100 is complete control), Lambsquarters: Postemergence, 31 g ai/ha, visually evaluated after 13 to 15 days; for Lambsquarters plant response rating / Plant response rating, Lambsquarters: postemergence; for Lambsquarters plant response rating: 62 g ai/ha, scale 0 to 100
# How it was run: as §1
# ragweed [6] = assay: Test C postemergence; assay type: in vivo, Ambrosia elation
# How it was run: as §1
# oilseed rape = assay: Test C preemergence; assay type: in vivo, Brassica napus
# How it was run: as §1
# velvetleaf [7] = assay: Test A postemergence; assay type: in vivo, Abutilon theophrasti
# How it was run: as §2
# soybean [8] = assay: Test C preemergence; assay type: in vivo, Glycine max
# How it was run: as §1
# wheat [9] = assay: Test A preemergence; assay type: in vivo, Triticum aestivum; settings: preemergence
# How it was run: as §2
# ragweed [10] = assay: Test C preemergence; assay type: in vivo, Ambrosia elation
# How it was run: as §1
# crabgrass, large = assay: Test A postemergence; assay type: in vivo, Digitaria sanguinalis
# How it was run: as §2
# [11] = Postemergence, 31 g ai/ha, visually evaluated after 13 to 15 days
# [12] = 250 g ai/ha, scale 0 to 100 (0 no effect, 100 complete control)
# [13] = 125 g ai/ha, scale 0 to 100, 0 no effect, 100 complete control
# [14] = Postemergence, 500 g ai/ha, 0 to 100 scale (0 no effect, 100 complete control)
# [15] = postemergence, 125 g ai/ha, about 10 days, visual rating on 0 to 100 scale (0 no effect, 100 complete control)
# [16] = preemergence, 31 g ai/ha, visual rating, scale 0 to 100 (0 no effect, 100 complete control), 13 to 15 days
# [17] = preemergence, 62 g ai/ha, scale 0 to 100 (0 no effect, 100 complete control), 13 to 15 days
# [18] = preemergence, 125 g ai/ha, 13 to 15 days, scale 0 to 100, 0 = no effect, 100 = complete control
# [19] = postemergence, 250 g ai/ha, scale 0 to 100 (0 no effect, 100 complete control)
# [20] = postemergence, 125 g ai/ha, scale 0 to 100, 0 no effect, 100 complete control
# [21] = Postemergence, 125 g ai/ha, 0 to 100 scale, 0 no effect, 100 complete control
# [22] = Preemergence, rate head not shown (block before 16 g ai/ha), scale 0 to 100
# [23] = preemergence, 250 g ai/ha, scale 0 to 100, 0 is no effect, 100 is complete control
smiles,measurement,setting,value
CCONC(=O)c1cc(CC)n(Cc2ccnc(OC(F)F)c2)n1 [Compound 131],"Plant response rating (scale of 0 to 100 where 0 is no effect and 100 is complete control), Wheat",wheat [1]; [11],5
same,Wheat plant response rating,wheat [1]; 62 g ai/ha,5
same,"Plant response rating, Wheat",wheat [1]; [12],10
same,"Plant response rating, Wheat",wheat [1]; [13],10
same,"Plant response rating (scale of 0 to 100 where 0 is no effect and 100 is complete control), Velvetleaf",velvetleaf [2]; [11],5
same,Velvetleaf plant response rating,velvetleaf [2]; 62 g ai/ha,25
same,"Plant response rating, Velvetleaf",velvetleaf [2]; [12],55
same,"Plant response rating, Velvetleaf",velvetleaf [2]; [13],35
same,Corn plant response rating,corn [3]; [14],100
same,Corn plant response rating,corn [3]; [15],80
same,"Plant response rating (scale of 0 to 100), Pigweed","pigweed; Preemergence, 250 g ai/ha",100
same,Pigweed plant response rating,pigweed; [16],100
same,Pigweed plant response rating,pigweed; [17],100
same,"Plant response rating, Pigweed",pigweed; [18],100
same,"Plant response rating (scale of 0 to 100 where 0 is no effect and 100 is complete control), Waterhemp",waterhemp; [11],55
same,Waterhemp plant response rating,waterhemp; 62 g ai/ha,55
same,"Plant response rating, Waterhemp",waterhemp; [12],80
same,"Plant response rating, Waterhemp",waterhemp; [13],65
same,"Plant response rating (scale of 0 to 100 where 0 is no effect and 100 is complete control), Soybean",soybean [4]; [11],20
same,Soybean plant response rating,"soybean [4]; 62 g ai/ha, scale 0 to 100",25
same,"Plant response rating, Soybean",soybean [4]; [12],80
same,"Plant response rating, Soybean",soybean [4]; [13],35
same,"Plant response rating (scale of 0 to 100 where 0 is no effect and 100 is complete control), Corn",corn [5],5
same,Corn plant response rating,corn [5],5
same,"Plant response rating, Corn",corn [5]; [12],50
same,"Plant response rating, Corn",corn [5]; [13],5
same,Morningglory plant response rating,morningglory; [14],100
same,Morningglory plant response rating,morningglory; [15],90
same,"Foxtail, Giant plant response rating","foxtail, giant; [14]",90
same,"Foxtail, Giant plant response rating","foxtail, giant; [15]",80
same,"Plant response rating (scale of 0 to 100 where 0 is no effect and 100 is complete control), Lambsquarters",lambsquarters,15
same,Lambsquarters plant response rating,lambsquarters,40
same,"Plant response rating, Lambsquarters",lambsquarters; [12],85
same,"Plant response rating, Lambsquarters",lambsquarters; [13],65
same,"Plant response rating (scale of 0 to 100 where 0 is no effect and 100 is complete control), Ragweed",ragweed [6]; [11],5
same,Ragweed plant response rating,"ragweed [6]; postemergence, 62 g ai/ha, scale 0 to 100",30
same,"Plant response rating, Ragweed",ragweed [6]; [19],85
same,"Plant response rating, Ragweed",ragweed [6]; [20],60
same,"Plant response rating (scale of 0 to 100), Oilseed Rape","oilseed rape; Preemergence, 250 g ai/ha",100
same,Oilseed Rape plant response rating,oilseed rape; [16],95
same,Oilseed Rape plant response rating,oilseed rape; [17],100
same,"Plant response rating, Oilseed Rape",oilseed rape; [18],98
same,Velvetleaf plant response rating,velvetleaf [7]; [14],100
same,Velvetleaf plant response rating,velvetleaf [7]; [15],90
same,"Plant response rating (scale of 0 to 100), Soybean","soybean [8]; Preemergence, 250 g ai/ha",98
same,Soybean plant response rating,soybean [8]; [16],30
same,Soybean plant response rating,soybean [8]; [17],40
same,"Plant response rating, Soybean",soybean [8]; [18],85
same,Wheat plant response rating,"wheat [9]; 125 g ai/ha, visual injury, 0 to 100 scale, approx. 10 days",90
same,Wheat plant response rating,"wheat [9]; 500 g ai/ha, visual injury after approx. 10 days, 0 to 100 scale (0 no effect, 100 complete control)",100
same,"Plant response rating (scale of 0 to 100), Ragweed","ragweed [10]; Preemergence, 250 g ai/ha",100
same,Ragweed plant response rating,ragweed [10]; [16],75
same,Ragweed plant response rating,ragweed [10]; [17],85
same,"Plant response rating, Ragweed",ragweed [10]; [18],100
same,"Crabgrass, Large plant response rating","crabgrass, large; [14]",90
same,"Crabgrass, Large plant response rating","crabgrass, large; [15]",70
CCc1cc(C(=O)NC2CC2)nn1Cc1ccnc(Br)c1 [Compound 220],"Plant response rating, Wheat",wheat [1]; [12],5
same,Wheat plant response rating,wheat [1],0
same,"Plant response rating, Velvetleaf",velvetleaf [2]; [12],40
same,Velvetleaf plant response rating,velvetleaf [2],45
same,Corn plant response rating,corn [3]; [21],40
same,Corn plant response rating,corn [3]; [14],90
same,"Plant response rating, Pigweed",pigweed; [22],65
same,Pigweed plant response rating,pigweed; [17],100
same,"Plant response rating, Pigweed",pigweed; [18],100
same,Pigweed plant response rating,pigweed; [23],100
same,"Plant response rating, Waterhemp",waterhemp; [12],45
same,Waterhemp plant response rating,waterhemp,45
same,"Plant response rating, Soybean",soybean [4]; [12],75
same,Soybean plant response rating,soybean [4]; [13],30
same,"Plant response rating (scale of 0 to 100 where 0 is no effect and 100 is complete control), Corn",corn [5],5
same,Corn plant response rating,corn [5],5
same,"Plant response rating, Corn",corn [5]; [12],10
same,"Plant response rating, Corn",corn [5]; [13],5
same,Morningglory plant response rating,morningglory; [21],50
same,Morningglory plant response rating,morningglory; [14],100
same,"Foxtail, Giant plant response rating","foxtail, giant; [21]",90
same,"Foxtail, Giant plant response rating","foxtail, giant; [14]",100
same,"Plant response rating (scale of 0 to 100 where 0 is no effect and 100 is complete control), Lambsquarters",lambsquarters,30
same,Lambsquarters plant response rating,lambsquarters,10
same,"Plant response rating, Lambsquarters",lambsquarters; [12],25
same,"Plant response rating, Lambsquarters",lambsquarters; [13],20
same,"Plant response rating, Ragweed",ragweed [6]; [19],45
same,"Plant response rating, Ragweed",ragweed [6]; [20],50
same,"Plant response rating, Oilseed Rape",oilseed rape; [22],80
same,Oilseed Rape plant response rating,oilseed rape; [17],30
same,"Plant response rating, Oilseed Rape",oilseed rape; [18],85
same,Oilseed Rape plant response rating,oilseed rape; [23],95
same,Velvetleaf plant response rating,velvetleaf [7]; [21],70
same,Velvetleaf plant response rating,velvetleaf [7]; [14],80
same,"Plant response rating, Soybean",soybean [8]; [22],10
same,Soybean plant response rating,soybean [8]; [17],10
same,"Plant response rating, Soybean",soybean [8]; [18],35
same,Soybean plant response rating,soybean [8]; [23],60
same,Wheat plant response rating (0 to 100 scale),"wheat [9]; 125 g ai/ha, visual injury approx. 10 days after treatment",0
same,"Plant response rating, Ragweed",ragweed [10]; [22],80
same,Ragweed plant response rating,ragweed [10]; [17],65
same,"Plant response rating, Ragweed",ragweed [10]; [18],75
same,Ragweed plant response rating,ragweed [10]; [23],95
same,"Crabgrass, Large plant response rating","crabgrass, large; [21]",90
same,"Crabgrass, Large plant response rating","crabgrass, large; [14]",100
